Results taken from ChEMBL document CHEMBL3507680, “University of Dundee, Gates Library screen for HepG2 cell viability”.

Test: Human HepG2 cell viability assay in 384 well format
Type: toxicity, cell-based
Parameters: dose 125 nL, time 70.5 hour; cytotoxicity at 70.5 h: concentration not given beside the values
Conditions: HepG2 cells, read-out: Inhibition

Row | Compound | cytotoxicity at 70.5 h [%]
1 | COc1ccc(N2CCN(CC[C@H](O)c3ccccc3)CC2=O)cc1 | -12.7
2 | Cc1ccc(C)c2c(C)c(C(=O)NCCCn3ccnn3)[nH]c12 | 43.6
3 | CCCS(=O)(=O)N1CCC2(CCC(=O)N(CCc3ccccc3)C2)CC1 | -10.1
4 | CCSCCNC(=O)c1cnc(-c2ccccc2)nc1O | 7.82
5 | CCCN1CCN(C(=O)c2ccc3ccccc3n2)[C@H]2CS(=O)(=O)C[C@H]21 | 13.2
6 | O=C(CSc1ccccc1)Nc1cnn(CC(=O)N2CCCO2)c1 | -2.01
7 | Cc1nc(CN2C[C@@H](NS(=O)(=O)N(C)C)[C@H](C(C)C)C2)cs1 | -1.78
8 | Cc1cccc(-c2cc(-c3c(C)nn(CCO)c3C)c(C#N)c(N)n2)c1 | -11.4
9 | Cc1ccccc1C(C(=O)N(C)Cc1cnn(C)c1)N(C)C (configuration not stated) | -1.08
10 | Cc1ccc(SCCN(C)C(=O)c2cn(CCN)nn2)cc1 | 16.5
11 | O=C(Cn1ccc2ccccc21)NCc1cc(N2CCOCC2)ncn1 | -1.81
12 | CCc1nc(CN(C)C(=O)c2cc(NC(C)=O)ccc2Cl)no1 | 18.6
13 | CN1CC2(CCCN(Cc3nnc(-c4ccccc4)o3)CC2)OC1=O (configuration not stated) | -15
14 | CC(=O)N[C@@H]1Cc2ccccc2[C@H]1Nc1ccncn1 | -5.99
15 | CCNc1ncc(C(=O)NCc2csc(C)n2)cn1 | 1.23
16 | Cc1ccc(N2CCCC(c3[nH]ncc3Cc3ccccc3)C2)nn1 (configuration not stated) | 7.65
17 | CCc1c(C)nc(N)nc1NCCSCc1[nH]cnc1C | -2.58
18 | COc1cc(F)c(CN2CC[C@@](O)(C3CC3)[C@H](C)C2)cc1OC | -3.1
19 | CCCn1ncc(C(=O)N2CCN([C@H]3CCCC[C@@H]3O)CC2)c1C | -0.657
20 | CC(C)(C)c1ncc2c(n1)CN(C(=O)c1ccc3[nH]cnc3c1)C2 | -3.17
21 | COc1ccccc1OCCCc1cccc(C#N)n1 | -1.85
22 | COC[C@]1(O)CCN(c2cc(OC)ncn2)CC1(C)C | -11.7
23 | CN(C)CCNC(=O)c1ccc(OC2CCN(C3CCC3)CC2)c(Cl)c1 | -5.59

Row | Compound | cytotoxicity at 70.5 h [%]
24 | O=C(c1ccccc1C(F)(F)F)N1C[C@@H](CN2CCOCC2)[C@@H](CO)C1 | -6.68
25 | CCC(=O)N1CCc2[nH]cnc2C12CCN(CC1CCOC1)CC2 (configuration not stated) | -9.55
26 | CS(=O)(=O)N1CCC2(CCCN(CCCc3ccccc3)C2=O)C1 (configuration not stated) | -6.93
27 | Cc1ccc(CN(C)Cc2cc(C3CC3)[nH]n2)c(O)n1 | -5.35
28 | COCC(NC(=O)c1cnc(-c2ccncc2)nc1)c1ccnn1C (configuration not stated) | -5.01
29 | O=C(NCc1ccc2c(c1)CCCO2)c1cn2c(n1)CNCC2 | 5.37
30 | CC(C)Oc1cccc(C(=O)Nc2nncs2)c1 | -11.6
31 | O=c1cc(-c2ccncc2)nc(-c2ccc(CN3CC[C@@H](O)C3)cc2)[nH]1 | -11.3
32 | COc1cccc(OCc2cc(C(=O)NC[C@@H]3CCCN3)n[nH]2)c1 | 0.523
33 | Cc1ccc(CN2CCN(C3CSCCSC3)CC2CCO)o1 (configuration not stated) | -6.76
34 | c1cc(N2CCC(c3nnc(Cn4ccnc4)n3C3CC3)CC2)ccn1 | -6.52
35 | CCC1=NOC(CNCc2cnc(-c3ccccc3C)s2)C1 (configuration not stated) | -6.62
36 | CC(Cn1ccnc1)NCc1nncn1C1CCCCC1 (configuration not stated) | -1.11
37 | Cc1ccc(CN2CC3(CCN(C(=O)C4CC4)CC3)CC2C(=O)O)o1 (configuration not stated) | -2.54
38 | CN(C)c1nc2c(c(=O)[nH]1)CCN(C(=O)C1CCCO1)C2 (configuration not stated) | -8.42
39 | O=C(Nc1ccc(-n2cccn2)cc1)N1C[C@H](O)[C@@H](N2CCOCC2)C1 | -13.4
40 | CC(=O)Nc1ccc(CN2CCc3[nH]cnc3C2c2ccc(C)o2)cc1 (configuration not stated) | -6.39
41 | CCN1CCC2(CC1)c1nc[nH]c1CCN2S(C)(=O)=O | -6.08
42 | COCCN(C)CCN1CC2(CCN(C3CCCCC3)CC2)OC1=O | -4.75
43 | CNCc1n[nH]c(=O)n1CC1CCCCC1 | -5.1
44 | Cc1nc(CN(C)Cc2cn[nH]c2-c2ccc(F)cc2)c[nH]1 | 5.97
45 | CC(NCc1cn(CCC(N)=O)c2ccccc12)c1nncn1C (configuration not stated) | 23.7
46 | CCNc1ncc(C(=O)NC2CCOCC2)cn1 | -5.98

Row | Compound | cytotoxicity at 70.5 h [%]
47 | Cc1nc(C)c(-c2ccn(CC(=O)Nc3cnn(C)n3)n2)s1 | 8.07
48 | CSc1ccccc1C(=O)N1C[C@H]2CC[C@@H]1CN(C(=O)N(C)C)C2 | -8.08
49 | CC(C)[C@]1(O)CN(C(=O)CNC(N)=O)C[C@H]1C | -0.763
50 | CC(=O)NCC(=O)N(CCN1CCOCC1)Cc1ccco1 | 3.23
51 | Cc1noc(C)c1C(=O)N(Cc1ccsc1)CC1CCCO1 (configuration not stated) | 3.1
52 | Cc1nc2c(c(NCc3cnc4c(c3)CCC4)n1)CNC2 | -6.06
53 | CCN1CC2(CCC1=O)CCN(C(=O)C(O)c1cccc(Cl)c1)CC2 (configuration not stated) | -7.18
54 | CN1Cc2nnc(C3CCOCC3)n2C(Cc2c[nH]cn2)C1 (configuration not stated) | -1.52
55 | OC1CCN(CCCNc2ncccn2)CC1 | 3.78
56 | O=C(O)C1c2nc[nH]c2CCN1Cc1ccc(-c2ccccc2)s1 (configuration not stated) | -4.04
57 | CN(Cc1ccc2nonc2c1)C(=O)c1ccc(C2CCCO2)s1 (configuration not stated) | -4.66
58 | COCc1nc(CNC2CSCCSC2)no1 | -11.5
59 | CCn1ncnc1CN(CCOC)Cc1ccc(C)cc1 | -4.05
60 | Cn1nccc1C(=O)N1CCCN(CCCc2ccccc2)CC1 | -0.514
61 | CCc1ccc(C(=O)N2CCC(O)(CN3CCOCC3)C(C)(C)C2)[nH]1 (configuration not stated) | -9.84
62 | CNCCNc1nccc(-c2cn(C)nc2C)n1 | -5.66
63 | Cc1cccc(CNC(=O)NCC2CCN(Cc3ncc[nH]3)C2)c1 (configuration not stated) | -16.7
64 | Cc1nnsc1CN1C[C@H]2CC[C@@H]1CN(Cc1ccccc1)C2 | -1.08
65 | CSCc1noc(Cn2ncn3cccc3c2=O)n1 | -3.25
66 | O=S(=O)(Cc1ccccc1CN1CCOCC(O)C1)c1ccccc1 (configuration not stated) | 14.8
67 | Cc1ccc(OC2(C(=O)N(C)Cc3ccoc3)CCNCC2)cc1 | -16.8
68 | CCCc1cnc(C)nc1N1CCC2(CCCO2)CC1 | -1.28
69 | CCc1nc(N2CCCC(CCCOC)C2)c2cnn(C)c2n1 (configuration not stated) | -5.41

Row | Compound | cytotoxicity at 70.5 h [%]
70 | COCc1nc(Cn2ncn3cccc3c2=O)no1 | -0.912
71 | CCN1CC(C(=O)N2CCN(CCn3cccc3)CC2)CCC1=O (configuration not stated) | 1.29
72 | Fc1cccc(C2(CNC3CCSC3)CCOCC2)c1 (configuration not stated) | 13.3
73 | CCc1nc(C)c(C2CC(=O)Nc3c2c(-c2ccccn2)nn3C)[nH]1 (configuration not stated) | 1.83
74 | COc1cccc2c1OCCCN(c1nc(N)nc3c1CCNC3)C2 | 12.6
75 | CCOCC(=O)N1CCC(C2CCN(Cc3ccc(Cl)cc3)C2)CC1 (configuration not stated) | -2.4
76 | COc1nc(C)c(C(=O)N2CCN(c3ncccc3C)CC2)s1 | -4.24
77 | CN(Cc1ccc2c(c1)OCO2)C(=O)c1ccc(C2CCCNC2)cc1 (configuration not stated) | -6.12
78 | NC(=O)CN1CCCC(C(=O)N2CCC(O)(Cc3ccccc3)CC2)C1 (configuration not stated) | -9.61
79 | CCc1ccc2nc(C)cc(C(=O)NC3CCCCNC3=O)c2c1 (configuration not stated) | 1.7
80 | CC(=O)N1CCCC(C(=O)NCCc2csc(-c3ccncc3)n2)C1 (configuration not stated) | -5.2
81 | O=C(c1scc2c1OCCO2)N1CCC(Cc2cccc(CO)c2)C1 (configuration not stated) | -3.37
82 | Cc1nc[nH]c1CN1CCCC(CNC(=O)c2ccncn2)C1 (configuration not stated) | -7.41
83 | Cc1nc(C)c(CC(=O)N2C[C@@H]3CC[C@H](C2)N(CC2CC2)C3)s1 | -3.8
84 | CCCS(=O)(=O)NCc1cccnc1Oc1ccc(C)nc1 | -0.632
85 | O=C(O)C1(Cc2ccc(F)cc2F)CCCN(Cc2ccccn2)C1 (configuration not stated) | -5.82
86 | O=C1NCCCC[C@@H]1NC(=O)C1(N2CCCCC2)Cc2ccccc2C1 | -4.27
87 | O=C(NCc1nnnn1-c1ccccc1)c1ccc(C2CCCO2)s1 (configuration not stated) | -4.49
88 | NC(=O)C1CCCN(c2ncnc3c2Cc2ccccc2OC3)C1 (configuration not stated) | 19
89 | C[C@@H]1CN(c2ccc(Cl)cn2)CC[C@@]1(O)C1CCOCC1 | -1.93
90 | CN1CC2(CCN(C(=O)c3[nH]cnc3-c3ccccc3)C2)OC1=O (configuration not stated) | -3.76
91 | O=C(Cc1cc(F)cc(Cl)c1)N[C@@H]1CCNC[C@H]1O | -5.4
92 | CCNc1ncc(C(=O)N(C)Cc2nc3cc(Cl)ccc3[nH]2)cn1 | -13.7

Row | Compound | cytotoxicity at 70.5 h [%]
93 | CN(CC1(CO)CC1)C(=O)C1CCC(=O)N(Cc2ccc(Cl)cc2)C1 (configuration not stated) | -1.51
94 | OC1(CNCc2noc(Cc3ccccc3)n2)CCCNC1 (configuration not stated) | 0.455
95 | CCN(Cc1nccn1C)C(=O)c1ccc(NCc2cnn(C)c2)nc1 | -3.96
96 | COc1ccc(-n2ccnc2-c2cnc(N(C)C)nc2)cc1OC | -6.47
97 | O[C@@H]1CN(CC2=Cc3cc(Cl)ccc3OC2)CC[C@H]1N1CCCCCC1 | -11
98 | O=C(c1ccc(S(=O)(=O)NCCc2ccncc2)cc1)N1CCCC1 | -19.6
99 | Cc1n[nH]c(C)c1CCc1nc(C2CC2)n[nH]1 | -6.37
100 | CCNC(=O)[C@@H]1C[C@H](N)CN1c1cc(C(F)(F)F)nc(N2CCCC2)n1 | 3.41
101 | COc1ccc2c(c1)OCC(Cc1ccc(N)cn1)C2 (configuration not stated) | 2.07
102 | COc1nc2c(cc1C(=O)NCCCc1csc(N)n1)CCC2 | -6.85
103 | CC(=O)N[C@@H]1CN(Cc2ccccc2-n2cccn2)C[C@H]1C(C)C | -4.08
104 | Cc1cc(C(=O)N2C[C@H]3CC[C@@H]2CN(C(=O)c2ccncc2)C3)cs1 | -1.99
105 | Cc1nccn1CCN(C)C(=O)c1cn(CC2CCCCC2)nn1 | -25.4
106 | CC(C)N1CCCC(C(=O)N2CCc3c(nc(CC4CC4)[nH]c3=O)C2)C1 (configuration not stated) | 3.48
107 | CN(C)CCN1CC(C(=O)N2CCC(c3nccn3C)CC2)CC1=O (configuration not stated) | 6.94
108 | c1ccc2c(c1)CC(Cc1cc(N3CCCC3)cnn1)CCO2 (configuration not stated) | 2.31
109 | Cc1ccc(C(=O)N2CC[C@H](N3CCOCC3)[C@H](CCCO)C2)cc1O | -8.22
110 | Cc1n[nH]c(C)c1Sc1ccccc1NC(=O)CN1CCCC1 | -3.41
111 | CC1(c2ccccc2)CCC(=O)N(CCCN2CCOCC2)C1 (configuration not stated) | -8.26
112 | CN1CC2(CCN(Cc3ncc[nH]3)CC2)CC1=O | -4.6
